According to PubChem BioAssay (NCI):
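Step 1: Grow cells in 96-well plates. Step 2: Expose to compound for 48 hours at 5 concentrations. Step 3: Interpolate endpoints linearly; if unreached, use highest concentration. GI50: concentration for 50% inhibition of growth. TGI marks complete inhibition of growth.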

What was measured:
Experiment in all cases: DTP human tumour cell line panel, 48 h
[1] = tested on: M14 melanoma
[2] = tested on: DU-145 prostate
[3] = tested on: CCRF-CEM leukemia
[4] = tested on: SK-MEL-2 melanoma
[5] = tested on: UO-31 renal
[6] = tested on: HS 578T breast
[7] = tested on: CAKI-1 renal
[8] = tested on: HOP-62 NSCLC
[9] = tested on: HT29 colon
[10] = tested on: K-562 leukemia
[11] = tested on: HOP-92 NSCLC
[12] = tested on: SF-295 CNS
[13] = tested on: HL-60(TB) leukemia
[14] = tested on: SK-MEL-5 melanoma
[15] = tested on: MCF7 breast
[16] = tested on: RXF 393 renal
[17] = tested on: MOLT-4 leukemia
[18] = tested on: OVCAR-5 ovarian
[19] = tested on: HCT-116 colon
[20] = tested on: NCI-H226 lung
[21] = tested on: NCI-H522 lung
[22] = tested on: SF-539 CNS
[23] = tested on: T-47D breast
[24] = tested on: SK-OV-3 ovarian
[25] = tested on: KM12 colon
[26] = tested on: LOX IMVI melanoma
[27] = tested on: TK-10 renal
[28] = tested on: U251 CNS
[29] = tested on: SNB-19 CNS
[30] = tested on: 786-0 renal
[31] = tested on: OVCAR-3 ovarian
[32] = tested on: A498 renal
[33] = tested on: SF-268 CNS
[34] = tested on: SW-620 colon
[35] = tested on: UACC-257 melanoma
[36] = tested on: ACHN renal
[37] = tested on: PC-3 prostate
[38] = tested on: SK-MEL-28 melanoma
[39] = tested on: MDA-MB-231 breast
[40] = tested on: EKVX NSCLC
[41] = tested on: HCT-15 colon
[42] = tested on: SR leukemia
[43] = tested on: RPMI-8226 leukemia
[44] = tested on: NCI-H460 lung
[45] = tested on: NCI/ADR-RES ovarian
[46] = tested on: MDA-MB-435
[47] = tested on: SNB-75 CNS
[48] = tested on: MALME-3M melanoma
[49] = tested on: UACC-62 melanoma
[50] = tested on: A549 NSCLC
[51] = tested on: COLO 205 colon
[52] = tested on: OVCAR-8 ovarian
[53] = tested on: BT-549 breast
[54] = tested on: IGROV1 ovarian
[55] = tested on: HCC-2998 colon
[56] = tested on: SN12C renal
[57] = tested on: OVCAR-4 ovarian

Work on O=C(CN1CCOCC1)NNc1ncnc2ccccc12 yielded a GI50 [1] of 10.1 µM, a TGI [1] of 25.2 µM and a GI50 [2] of 17.4 µM. The TGI [2] was 32.3 µM, the GI50 [3] was 3.34 µM and the TGI [3] was 71 µM. For the same molecule, the GI50 [4] was 15.6 µM, the TGI [4] was 30.5 µM and the GI50 [5] was 13.3 µM. For the same molecule, the TGI [5] was 26.1 µM, the GI50 [6] was 20.6 µM and the TGI [6] was 64.6 µM. The GI50 [7] was 2.76 µM, the GI50 [8] was 17.9 µM and the TGI [8] was 32.9 µM. The GI50 [9] was 15.6 µM, the TGI [9] was 33.7 µM and the GI50 [10] was 3.18 µM. For the same molecule, the TGI [10] was 12.9 µM, the GI50 [11] was 13.3 µM and the TGI [11] was 27.1 µM. The GI50 [12] was 19.5 µM, the TGI [12] was 34.4 µM and the GI50 [13] was 5.17 µM. For the same molecule, the TGI [13] was 26.2 µM, the GI50 [14] was 18 µM and the TGI [14] was 33.3 µM. It also gave a GI50 [15] of 4.33 µM, a TGI [15] of 21.9 µM and a GI50 [16] of 2.29 µM. For the same molecule, the TGI [16] was 6.12 µM, the GI50 [17] was 15.6 µM and the TGI [17] was 56.9 µM. It also gave a GI50 [18] of 12.9 µM, a TGI [18] of 25.9 µM and a GI50 [19] of 3.14 µM. It also gave a TGI [19] of 12.3 µM, a GI50 [20] of 15.8 µM and a TGI [20] of 39.7 µM. For the same molecule, the GI50 [21] was 1.41 µM, the TGI [21] was 2.92 µM and the GI50 [22] was 13.2 µM. For the same molecule, the TGI [22] was 26 µM, the GI50 [23] was 4.1 µM and the TGI [23] was 19.7 µM. It also gave a GI50 [24] of 16.3 µM, a TGI [24] of 30.1 µM and a GI50 [25] of 18.7 µM. The TGI [25] was 41.4 µM, the GI50 [26] was 1.31 µM and the TGI [26] was 11.2 µM. It also gave a GI50 [27] of 21.5 µM, a TGI [27] of 36.3 µM and a GI50 [28] of 13.9 µM. It also gave a TGI [28] of 27.5 µM, a GI50 [29] of 16.2 µM and a TGI [29] of 30.7 µM. For the same molecule, the GI50 [30] was 2.23 µM, the TGI [30] was 5.17 µM and the GI50 [31] was 3.78 µM. For the same molecule, the TGI [31] was 14.1 µM, the GI50 [32] was > 100 µM and the TGI [32] was > 100 µM. The GI50 [33] was 3.95 µM, the TGI [33] was 18.5 µM and the GI50 [34] was 2.48 µM. It also gave a TGI [34] of 6.47 µM, a GI50 [35] of 14.1 µM and a TGI [35] of 28 µM. The GI50 [36] was 1.82 µM, the TGI [36] was 3.21 µM and the GI50 [37] was 14.7 µM. For the same molecule, the TGI [37] was 30.4 µM, the GI50 [38] was 12.2 µM and the TGI [38] was 24.5 µM. It also gave a GI50 [39] of 14.4 µM, a TGI [39] of 29.6 µM and a GI50 [40] of 14.2 µM. The TGI [40] was 28 µM, the GI50 [41] was 11.9 µM and the TGI [41] was 26.4 µM. For the same molecule, the GI50 [42] was 15.7 µM, the TGI [42] was 54.7 µM and the GI50 [43] was 16.9 µM. The TGI [43] was 46.6 µM, the GI50 [44] was 19.1 µM and the TGI [44] was 38.9 µM. It also gave a GI50 [45] of 20.6 µM, a TGI [45] of 50.2 µM and a GI50 [46] of 13.7 µM. The TGI [46] was 27 µM, the GI50 [47] was 16 µM and the TGI [47] was 30 µM. The GI50 [48] was 1.74 µM, the TGI [48] was 3.52 µM and the GI50 [49] was 13.7 µM. For the same molecule, the TGI [49] was 27.2 µM, the GI50 [50] was 17.4 µM and the TGI [50] was 34.7 µM. The GI50 [51] was 2.42 µM, the TGI [51] was 5.37 µM and the GI50 [52] was 17.1 µM. The TGI [52] was 33.1 µM, the GI50 [53] was 13.8 µM and the TGI [53] was 28 µM. For the same molecule, the GI50 [54] was 17 µM, the TGI [54] was 36.3 µM and the GI50 [55] was 16.9 µM. It also gave a TGI [55] of 31.4 µM, a GI50 [56] of 14.9 µM and a TGI [56] of 28.6 µM. The GI50 [57] was 1.83 µM and the TGI [57] was 3.85 µM.
